# “Also recorded” adds a separate entry of the source. Where two headings read alike, the source gives them in different places.
# What was measured:
# [1] = tested on: estrogen binding protein (EBP), 84 kD heterodimer, mouse fetal liver; test: Competition for / modulation of ^3H-estradiol-17β binding to EBP (charcoal assay); conditions: for inhibition of / influence on ^3H-estradiol-17β binding to EBP: competitor concentration not stated
# Method: (§1) In brief, the procedure is as follows. […] Simultaneously tubes in duplicate without any added protein sample were set up as control. At the end of the incubation the tubes were put in an ice bath for 15 minutes to cool to the ice bath temperature. 0.5 ml of charcoal solution (0.05% heat activated charcoal plus 0.05% bovine serum albumin in tris buffer) was added, mixed and incubated further for 10 minutes. The tubes were then centrifuged at 2500 rpm for 15 minutes at 4°C to pellet the charcoal. 0.5 ml from each tube was carefully withdrawn without disturbing the charcoal pellet at the bottom of the tube and the radioactivity was measured following mixing with the scintillation cocktail. The net protein bound radioactivity was calculated after deducting the background counts based on the tubes without any added protein.
# [2] = tested on: estrogen binding protein (EBP), 84 kD heterodimer, mouse fetal liver
# Method: as §1
# [3] = tested on: type II ER; conditions: literature (40-41,43); cited from earlier work
# [4] = tested on: estrogen binding protein (EBP), 84 kD heterodimer, mouse fetal liver; test: Sucrose density gradient centrifugation of EBP incubated with ^3H-estradiol-17β and competitor; conditions: ^3H-estradiol-17β 0.85 pmol + dimethylbenzanthracene 0.42 nmol or 1.2 nmol; Fig. 17
# Text: In the light of the above information attempts were made to analyse whether some of the known pollutants and carcinogens (1-OH, 3-OH, 8-OH, 10-OH benzo(a)pyrene, […]) compete in vitro with ^3H-estradiol-17β for binding site on EBP. […] Since benzo(a)pyrene is a known carcinogen it will be important to determine whether there is a structural relationship between estradiol-17β and the various hydroxy benzo(a)pyrenes. […] It is well known that DMBA is a potent carcinogen and as such it has been extensively used to induce estrogen dependent mammary and endometrial cancers in animals. […] However, this agent is still utilized to coat common plastics of daily use. […] Establishment of a correlationship between the in vitro and in vivo potency of such compounds will provide a rapid in vitro screening assay. Most importantly, such information for the first time will delineate a definitive role for an estrogen binder such as EBP in carcinogenesis and may also enable to explain why compounds such as DMBA induce tumors in estrogen responsive tissues as well as why the tumors are estrogen dependent.
compound,measurement,setting,value
CC/C(=C(\c1ccccc1)c1ccc(OCCN(C)C)cc1)c1ccccc1 [Tamoxifen],inhibition of / influence on ^3H-estradiol-17β binding to EBP,[1],no significant inhibitory effect
CC/C(=C(\c1ccc(O)cc1)c1ccc(OCCN(C)C)cc1)c1ccccc1 [4-hydroxytamoxifen],inhibition of / influence on ^3H-estradiol-17β binding to EBP,[1],no significant inhibitory effect
C[C@]12CC[C@@H]3c4ccc(O)cc4CC[C@H]3[C@@H]1CC[C@H]2O [estradiol-17α],inhibition of ^3H-estradiol-17β binding to EBP,[1]; competitor at 300-fold the concentration of the radiolabelled estrogen,no inhibitory effect
NCCc1ccc(O)c(O)c1 [dopamine],binding of the radiolabelled compound to EBP,[2]; radiolabelled ligand,no binding
same,influence on ^3H-estradiol-17β binding to EBP,[1]; both at low and high molarity,did not significantly influence
same,inhibition of / influence on ^3H-estradiol-17β binding to EBP,[1],did not influence
C[C@]12CC[C@@H]3c4ccc(O)cc4CC[C@H]3[C@@H]1C[C@@H](O)[C@@H]2O [estriol],relative binding activities of the competing estrogens,"[1]; calculated at the 50% reduction level, compared to non-labelled estradiol-17β competing potency",37%
same,inhibition of / influence on ^3H-estradiol-17β binding to EBP,[1],significantly inhibited
"O[C@H](CS)[C@H](O)CS (racemic) [DTT, dithiotreitol]",sensitivity of type II ER estrogen binding to DTT,[3],highly sensitive
CC/C(=C(/CC)c1ccc(O)cc1)c1ccc(O)cc1 [diethylstilbestrol],binding of the radiolabelled compound to EBP,[2],"does not bind; also recorded: most estrogens no Des binding no competition (prog, androgen, corticoids)"
"Cc1c2ccccc2c(C)c2c1ccc1ccccc12 [DMBA, 7,12-dimethylbenzanthracene]",inhibition of ^3H-estradiol-17β binding (sucrose gradient centrifugation),[4],inhibition

# — patent publication EP0939084A1, “An estrogen binding proteinaceous substance, its possible role in estrogen action, and potential use” (Rao, Ramanath B., priority 1998, dated 1999)
